Measurements published in patent US6919190B2, “Regulation of carbon assimilation” (priority 1999, dated 2005).

Columns and labels:
[1] = test system: PEP carboxylase of Corynebacterium glutamicum strain BF100 (lysine-producing); experiment: PEP carboxylase activity in crude extract, lysine-producing strain; assay type: biochemical; conditions: relative to Complete = 100%, change in absorbance at 340 nm/min
Protocol: (§1) It is possible for the measurement of the enzyme activity to use a spectrometric method (Yoshinage, T., et al., J. Biochem. 68:747-750 (1970)) and the like. For example, when the enzyme assay is measured in a continuous or kinetic mode while the reaction is occurring, the reaction can be measured spectrophotometrically by following the decrease in the absorbance (usually at 340 nanometers).
(§2) Activity units were measured spectrophotometrically as the change in absorbance (340 nm/min) using crude extracts.

[2] = molecular target: T1, PEP carboxylase of Corynebacterium glutamicum strain ATCC 13032 (wild-type) (Corynebacterium glutamicum, UniProt P12880); experiment: PEP carboxylase activity in crude extract, wild-type strain; assay type: biochemical; conditions: crude extract of ATCC 13032, relative to Complete = 100%, change in absorbance at 340 nm/min
T1 construct: endogenous in cells; host or cells: Corynebacterium glutamicum ATCC 13032, crude extract
T1 sequence (P12880 whole entry): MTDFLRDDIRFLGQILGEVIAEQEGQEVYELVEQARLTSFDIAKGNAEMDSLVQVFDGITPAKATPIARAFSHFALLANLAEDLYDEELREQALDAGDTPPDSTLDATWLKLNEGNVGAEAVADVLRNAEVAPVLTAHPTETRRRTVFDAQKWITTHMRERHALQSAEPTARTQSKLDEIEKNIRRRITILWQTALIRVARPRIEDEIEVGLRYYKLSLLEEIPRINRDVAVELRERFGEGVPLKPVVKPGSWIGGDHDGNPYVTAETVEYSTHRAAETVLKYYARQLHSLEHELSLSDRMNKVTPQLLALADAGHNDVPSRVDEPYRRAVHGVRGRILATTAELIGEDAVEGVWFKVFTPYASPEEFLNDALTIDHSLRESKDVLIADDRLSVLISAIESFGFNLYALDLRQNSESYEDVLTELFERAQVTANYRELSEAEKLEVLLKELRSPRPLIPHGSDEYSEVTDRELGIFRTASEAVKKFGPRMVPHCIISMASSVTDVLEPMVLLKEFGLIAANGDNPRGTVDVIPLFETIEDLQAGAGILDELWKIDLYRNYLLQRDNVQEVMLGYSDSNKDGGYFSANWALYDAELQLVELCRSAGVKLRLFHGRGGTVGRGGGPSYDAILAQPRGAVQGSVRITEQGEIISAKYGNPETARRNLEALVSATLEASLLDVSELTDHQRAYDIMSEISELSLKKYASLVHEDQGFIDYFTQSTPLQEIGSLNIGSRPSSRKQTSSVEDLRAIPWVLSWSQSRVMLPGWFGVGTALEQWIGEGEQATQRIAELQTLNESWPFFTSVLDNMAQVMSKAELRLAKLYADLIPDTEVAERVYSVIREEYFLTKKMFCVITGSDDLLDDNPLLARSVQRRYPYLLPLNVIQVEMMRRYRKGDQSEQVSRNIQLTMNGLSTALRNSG
Protocol: as §1, §2

[3] = molecular target: T2, PEP carboxylase from a strain of Medicago sativa (Medicago sativa, UniProt Q02735); conditions: Vance et al., Plant Physiol. 75:261-264 (1984); cited from earlier work
T2 sequence (Q02735 1-966): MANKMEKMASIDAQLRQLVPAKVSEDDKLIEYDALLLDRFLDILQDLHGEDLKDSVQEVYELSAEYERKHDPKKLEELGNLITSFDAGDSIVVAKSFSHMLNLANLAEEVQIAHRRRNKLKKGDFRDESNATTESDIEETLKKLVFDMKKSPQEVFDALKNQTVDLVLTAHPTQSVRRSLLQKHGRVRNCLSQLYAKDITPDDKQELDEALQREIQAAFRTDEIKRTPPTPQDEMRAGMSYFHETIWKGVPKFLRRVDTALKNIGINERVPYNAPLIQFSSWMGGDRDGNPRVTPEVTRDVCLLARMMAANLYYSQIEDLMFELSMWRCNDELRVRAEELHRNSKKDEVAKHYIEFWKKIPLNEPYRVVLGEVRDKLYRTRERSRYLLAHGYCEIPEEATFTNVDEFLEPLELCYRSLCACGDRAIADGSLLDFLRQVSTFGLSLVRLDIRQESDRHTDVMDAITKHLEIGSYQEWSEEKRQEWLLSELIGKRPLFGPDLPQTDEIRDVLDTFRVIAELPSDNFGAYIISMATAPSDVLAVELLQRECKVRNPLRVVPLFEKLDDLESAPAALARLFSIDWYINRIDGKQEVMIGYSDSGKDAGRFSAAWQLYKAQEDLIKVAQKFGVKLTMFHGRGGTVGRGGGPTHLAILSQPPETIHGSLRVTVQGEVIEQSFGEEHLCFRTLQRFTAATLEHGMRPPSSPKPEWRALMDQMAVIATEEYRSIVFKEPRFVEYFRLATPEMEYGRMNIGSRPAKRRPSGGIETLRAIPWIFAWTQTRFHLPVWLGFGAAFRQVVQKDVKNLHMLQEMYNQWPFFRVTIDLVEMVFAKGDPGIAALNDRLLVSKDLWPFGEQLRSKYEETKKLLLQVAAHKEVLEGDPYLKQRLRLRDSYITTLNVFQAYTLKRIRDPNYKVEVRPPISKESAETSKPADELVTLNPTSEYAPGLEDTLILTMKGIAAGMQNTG

CC(=O)SCCNC(=O)CCNC(=O)[C@H](O)C(C)(C)COP(=O)(O)OP(=O)(O)OC[C@H]1O[C@@H](n2cnc3c(N)ncnc32)[C@H](O)[C@@H]1OP(=O)(O)O [Acetyl CoA, acetyl coenzyme A]
PEP Carboxylase Activity −Acetyl CoA ([1]; acetyl CoA omitted): 15% | PEP Carboxylase Activity −Acetyl CoA ([2]; acetyl CoA omitted): 56%

N[C@@H](CC(=O)O)C(=O)O [Aspartate, L-aspartic acid]
PEP Carboxylase Activity +Aspartate (5 mM) ([1]; 5 mM aspartate): 17% | PEP Carboxylase Activity +Aspartate (5 mM) ([2]; 5 mM aspartate): 100% | inhibition of PEP carboxylase activity [3]: not substantially inhibited
